Source: patent US12338253B2, “Nitrogen-containing polycyclic fused ring compound, pharmaceutical composition thereof, preparation method therefor and use thereof” (APPLIED PHARMACEUTICAL SCIENCE, INC., priority 2019, dated 2025)

Experiments:
RET wt = RET wt (Homo sapiens (Human), UniProt P07949); experiment: HTRF kinase activity test, RET wt; type: biochemical; conditions: for IC50: HTRF KinEASE-TK; for inhibitory activity on RET wt compared with cabozantinib: comparison in words
RET G810R = RET G810R (Homo sapiens (Human), UniProt P07949, G810R); experiment: HTRF kinase activity test, RET G810R; type: biochemical; conditions: for IC50: HTRF KinEASE-TK; for inhibitory activity on RET G810R compared with cabozantinib and selpercatinib (LOXO-292): comparison in words
[1] = system: TT cell human medullary thyroid carcinoma xenograft model; experiment: Pharmacodynamic test on TT cell human medullary thyroid carcinoma xenograft model; type: in vivo, mice; conditions: 10 mg/kg, oral, twice a day, 28 consecutive days
Description: TT tumor cells were cultured in F12K medium containing inactivated 10% fetal bovine serum, 100 U/mL penicillin, 100 μg/mL streptomycin and 2 mM glutamine in an incubator at 37° C. and 5% CO2. The cells were cultured at a starting concentration of 1×10^6 cells/mL, and divided and transferred to flasks for sub-culture every 3 to 4 days when they were overgrown. The tumor cells in the logarithmic growth phase were used for tumor inoculation in vivo.
The TT tumor cells resuspended in serum-free F12K medium at a concentration of 1×10^7 cells+gel/100 μL were inoculated subcutaneously into the right flank of experimental animals. When the tumor grew to about 224 mm^3, the compounds were administered in groups, with 6 animals in each group.
The mice were orally administered with the test compound twice a day for 28 consecutive days.
Tumor volume: the long and short diameters of the tumor were measured using a vernier caliper. The volume was calculated by the formula: volume=0.5×long diameter×short diameter^2. Animals were required to have their body weight and tumor size measured twice a week during the administration.
Reaction of animals after the administration: the experimental animals were weighed while measuring the tumors. The relationship between the change in the animal weight and the time of administration was recorded. At the same time, the survival and health of the mice, such as animal activity, feeding and other general states during the administration were observed.
Relative tumor proliferation rate T/C (%)=TRTV/CRTV×100% (TRTV: treatment group RTV; CRTV: negative control group RTV), where the relative tumor volume (RTV) is calculated as: RTV=Vt/V0, where V0 is the tumor volume measured at the time of group administration (that is, day 1 of the administration), and Vt is the tumor volume at each measurement. Tumor growth inhibition rate TGI (%)=(1−T/C)×100%.

[2] = system: Ba/F3 cell KIF5B-RET-V804M fusion xenograft model; experiment: Pharmacodynamic test on Ba/F3 cell KIF5B-RET-V804M fusion xenograft model; type: in vivo, BALB/c nude mice; conditions: 10 mg/kg; for Tumor growth inhibition rate: oral, twice a day, end of the control experiment (day 8 of the administration); for tumor volume compared with the selpercatinib group: p<0.05
RET V804M = RET V804M (Homo sapiens (Human), UniProt P07949, V804M); experiment: HTRF kinase activity test, RET V804M; type: biochemical; conditions: for IC50: HTRF KinEASE-TK; for inhibitory activity on RET V804M compared with cabozantinib: comparison in words
TT Cell = experiment: TT cell activity test (CelltiterGlo, 72 h); type: cell-based, human; conditions: for IC50: Homo sapiens, TT cell line, 72 h, CTG; for inhibitory activity on TT cells compared with cabozantinib: comparison in words
Description: 2.3 Data Processing % Inhibition (inhibition rate)=100*(HC−test compound well reading)/(HC−LC) • High control (HC, reading control without inhibition): 0.5% DMSO • Low control (LC, control with compound inhibition): 1 μM CEP-32496
The IC50 values were calculated using GraphPad Prism 6 software. Y=Bottom+(Top−Bottom)/(1+10^((Log IC50−X)*HillSlope)); • X: log of cpd concentration; • Y: % inhibition; • Top and Bottom: plateaus in same units as Y; • Log IC50: same log units as X; and • HillSlope: slope factor The Cell Results are Shown in Table 5: […]

[3] = end of the experiment (day 14 of the administration)

Chain of RET V804M (P07949 29-1114 V804M): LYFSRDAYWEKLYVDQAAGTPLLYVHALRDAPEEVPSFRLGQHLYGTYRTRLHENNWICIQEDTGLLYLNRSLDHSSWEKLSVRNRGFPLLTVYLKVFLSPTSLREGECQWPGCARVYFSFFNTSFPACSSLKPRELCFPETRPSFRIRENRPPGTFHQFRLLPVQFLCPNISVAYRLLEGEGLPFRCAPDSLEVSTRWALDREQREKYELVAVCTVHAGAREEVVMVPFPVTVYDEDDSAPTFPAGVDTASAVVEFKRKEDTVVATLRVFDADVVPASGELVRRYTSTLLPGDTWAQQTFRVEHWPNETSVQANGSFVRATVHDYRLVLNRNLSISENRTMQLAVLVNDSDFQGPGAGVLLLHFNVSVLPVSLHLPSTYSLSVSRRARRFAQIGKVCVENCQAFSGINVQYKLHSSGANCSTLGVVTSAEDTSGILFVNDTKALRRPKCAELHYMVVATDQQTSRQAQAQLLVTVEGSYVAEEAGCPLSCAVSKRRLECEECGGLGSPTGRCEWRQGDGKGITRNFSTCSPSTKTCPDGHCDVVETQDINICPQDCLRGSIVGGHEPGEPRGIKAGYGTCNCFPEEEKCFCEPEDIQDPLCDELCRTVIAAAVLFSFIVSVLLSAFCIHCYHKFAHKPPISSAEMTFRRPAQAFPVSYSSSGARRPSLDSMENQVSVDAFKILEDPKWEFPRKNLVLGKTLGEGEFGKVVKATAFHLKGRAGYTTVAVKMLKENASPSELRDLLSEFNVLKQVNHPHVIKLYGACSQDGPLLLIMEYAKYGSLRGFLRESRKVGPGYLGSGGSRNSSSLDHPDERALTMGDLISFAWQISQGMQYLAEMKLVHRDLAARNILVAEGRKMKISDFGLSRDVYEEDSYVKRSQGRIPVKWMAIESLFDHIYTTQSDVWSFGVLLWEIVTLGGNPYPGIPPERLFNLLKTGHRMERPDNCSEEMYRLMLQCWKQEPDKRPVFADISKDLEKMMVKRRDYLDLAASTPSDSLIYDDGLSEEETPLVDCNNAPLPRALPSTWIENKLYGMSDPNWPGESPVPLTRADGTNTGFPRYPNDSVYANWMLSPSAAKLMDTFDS
Chain of RET wt (P07949 29-1114): as the sequence (P07949 29-1114 V804M) above, with M776V counted along it
Chain of RET G810R (P07949 29-1114 G810R): as the sequence (P07949 29-1114 V804M) above, with M776V, G782R counted along it

Row | Structure (SMILES) | IC50 (RET wt) [pM] | inhibitory activity on RET wt compared with cabozantinib (RET wt) | IC50 (RET G810R) [pM] | inhibitory activity on RET G810R compared with cabozantinib and selpercatinib (LOXO-292) (RET G810R) | Tumor growth inhibition rate TGI [1] [%] | Tumor growth inhibition rate [2] [%] | tumor volume compared with the selpercatinib group ([2]; day 8 of the administration) | tumor volume compared with the selpercatinib group [2, 3] | IC50 (RET V804M) [pM] | inhibitory activity on RET V804M compared with cabozantinib (RET V804M) | IC50 (TT Cell) [pM] | inhibitory activity on TT cells compared with cabozantinib (TT Cell)
1 | CCOc1cc(-c2ccc(N3CC4CC(C3)N4Cc3ccc(OC)nc3)nc2)c2c3cn[nH]c3nn2c1 [Compound 9, 6-ethoxy-4-(6-(6-((6-methoxypyridin-3-yl)methyl)-3,6-diazabicyclo[3.3.1]heptan-3-yl)pyridin-3-yl)-1H-pyrazolo[3′,4′:3,4]pyrazolo[1,5-a]pyridine] | 200 | significantly better than that of cabozantinib | 1900 | significantly better than that of cabozantinib and selpercatinib (LOXO-292) | 88.5 | 94 | significantly lower than that of the selpercatinib group | significantly lower than that of the selpercatinib group | 100 | significantly better than that of cabozantinib | 5500 | significantly better than that of cabozantinib
2 | COc1ccc(CN2C3CC2CN(c2ccc(-c4cc(OCCF)cn5nc6[nH]ncc6c45)cn2)C3)cn1 [Compound 31, 6-(2-fluoroethoxy)-4-(6-(6-((6-methoxypyridin-3-yl)methyl)-3,6-diazabicyclo[3.3.1]heptan-3-yl)pyridin-3-yl)-1H-pyrazolo[3′,4′:3,4]pyrazolo[1,5-a]pyridine] | 100 | significantly better than that of cabozantinib | 1000 | significantly better than that of cabozantinib and selpercatinib (LOXO-292) | 87.4 | 92 | significantly lower than that of the selpercatinib group | significantly lower than that of the selpercatinib group | 100 | significantly better than that of cabozantinib | 12700 | significantly better than that of cabozantinib
3 | COc1ccc(CN2C3CC2CN(c2ccc(-c4cc(OCC(F)F)cn5nc6[nH]ncc6c45)cn2)C3)cn1 [Compound 32, 6-(2,2-difluoroethoxy)-4-(6-(6-((6-methoxypyridin-3-yl)methyl)-3,6-diazabicyclo[3.3.1]heptan-3-yl)pyridin-3-yl)-1H-pyrazolo[3′,4′:3,4]pyrazolo[1,5-a]pyridine] | 100 | significantly better than that of cabozantinib | 2300 | significantly better than that of cabozantinib and selpercatinib (LOXO-292) | 86.9 | 96 | significantly lower than that of the selpercatinib group | significantly lower than that of the selpercatinib group | 100 | significantly better than that of cabozantinib | 6500 | significantly better than that of cabozantinib
4 | COc1cc(-c2ccc(N3CC4CC(C3)N4Cc3ccc(OC)nc3)nc2)c2c3cn[nH]c3nn2c1 [Compound 36, 6-methoxy-4-(6-(6-((6-methoxypyridin-3-yl)methyl)-3,6-diazabicyclo[3.3.1]heptan-3-yl)pyridin-3-yl)-1H-pyrazolo[3′,4′:3,4]pyrazolo[1,5-a]pyridine] | 200 | significantly better than that of cabozantinib | 1700 | significantly better than that of cabozantinib and selpercatinib (LOXO-292) | – | – | – | – | 100 | significantly better than that of cabozantinib | 10700 | significantly better than that of cabozantinib
5 | CCCOc1cc(-c2ccc(N3CC4CC(C3)N4Cc3ccc(OC)nc3)nc2)c2c3cn[nH]c3nn2c1 [Compound 38, 4-(6-(6-((6-methoxypyridin-3-yl)methyl)-3,6-diazabicyclo[3.3.1]heptan-3-yl)pyridin-3-yl)-6-propoxy-1H-pyrazolo[3′,4′:3,4]pyrazolo[1,5-a]pyridine] | 200 | significantly better than that of cabozantinib | 2900 | significantly better than that of cabozantinib and selpercatinib (LOXO-292) | – | – | – | – | 100 | significantly better than that of cabozantinib | 10600 | significantly better than that of cabozantinib
6 | COc1ccc(CN2C3CC2CN(c2ccc(-c4cc(OCC(C)C)cn5nc6[nH]ncc6c45)cn2)C3)cn1 [Compound 39, 6-isobutoxy-4-(6-(6-((6-methoxypyridin-3-yl)methyl)-3,6-diazabicyclo[3.3.1]heptan-3-yl)pyridin-3-yl)-1H-pyrazolo[3′,4′:3,4]pyrazolo[1,5-a]pyridine] | 400 | significantly better than that of cabozantinib | 30500 | significantly better than that of cabozantinib and selpercatinib (LOXO-292) | – | – | – | – | 300 | significantly better than that of cabozantinib | 12300 | significantly better than that of cabozantinib
7 | COc1ccc(CN2C3CC2CN(c2ccc(-c4cc(OCC(C)(C)O)cn5ncc(C#N)c45)cn2)C3)cn1 [Selpercatinib(LOXO-292), Selpercatinib, reference compound] | – | – | – | – | – | 49 | – | – | – | – | – | –
